Assay results taken from paper PMC9351465, “Mechanism-based heparanase inhibitors reduce cancer metastasis in vivo” (Proceedings of the National Academy of Sciences of the …, 2022).

Target: T1, endogenous cellular HPSE (U87 glioma cells) (Homo sapiens, UniProt Q9Y251)
T1 construct: endogenous in cells; host or cells: U87 glioma cells
T1 sequence (Q9Y251 158-543 limits assumed): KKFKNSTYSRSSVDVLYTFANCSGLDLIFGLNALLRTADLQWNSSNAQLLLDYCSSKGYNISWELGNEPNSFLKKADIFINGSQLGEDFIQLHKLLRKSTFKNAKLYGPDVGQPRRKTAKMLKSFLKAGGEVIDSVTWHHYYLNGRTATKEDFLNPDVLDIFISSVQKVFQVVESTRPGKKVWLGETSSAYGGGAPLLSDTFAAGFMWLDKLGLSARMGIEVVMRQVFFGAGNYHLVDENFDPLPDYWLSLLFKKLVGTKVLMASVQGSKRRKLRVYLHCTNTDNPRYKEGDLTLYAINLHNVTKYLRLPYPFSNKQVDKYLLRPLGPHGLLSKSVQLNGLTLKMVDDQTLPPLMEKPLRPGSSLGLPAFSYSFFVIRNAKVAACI
T1 sequence (Q9Y251 36-109 limits assumed): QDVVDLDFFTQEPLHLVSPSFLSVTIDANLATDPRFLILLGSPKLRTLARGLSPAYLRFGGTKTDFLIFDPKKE
Assay: H35SPG digest by U87 glioma cell lysates, inhibitor before or after lysis
Format: cell-based
Details: inhibitor applied before or after lysis, 18 h digest
Text: Finally, we assessed our inhibitors against HPSE-mediated degradation of bona fide HSPGs in an ECM environment. Cultured bovine corneal endothelial cells secrete a subendothelial basement membrane material rich in proteoglycans, which can be radiolabeled by growth in the presence of ^35SO4^2− ([50]). Solubilized H^35S chains released from H^35SPGs by HPSE digestion can be resolved chromatographically, with HPSE inhibition leading to a corresponding loss of signal. […] We also tested inhibition of endogenous cellular HPSE using this assay format.
Figure S7 Radiolabelled H35SPG basement membrane digests by HPSE expressing U87 cell […]
(1 picture or pasted object on this page, not shown here)
For HS-degradation assays, ECM coated dishes were incubated with 200 ng recombinant HPSE in 1 mL reaction mixture (10 mM buffer Phosphate-Citrate pH 6.0, 50 mM NaCl, 1 mM DTT, 1 mM CaCl2) containing HPSE inhibitors or DMSO control. […] The Sepharose 6B column was eluted with PBS, and 35S radioactivity of 0.2 mL fractions quantitated using a liquid scintillation analyzer (Packard BioScience) (11). […]
Cells in the upper chamber were separated by Matrigel from a lower chamber containing 600 µL DMEM, supplemented with 10% FBS. […] 10 randomly selected microscopic fields were recorded, and cell invasion calculated using ImageJ, by quantitating the percentage of the field stained by crystal violet. […]

In the case of CC(=O)N[C@H]1[C@@H](O[C@H]2[C@H](O)[C@@H](O)[C@@H]3O[C@@H]3[C@@H]2C(=O)O)O[C@H](CO)[C@@H](O)[C@@H]1O [compound 2], the “inhibition of intracellular HPSE pool (cell penetration)” value is reported as “can also penetrate cells to inhibit the intracellular HPSE pool”.
